Source: patent publication US9079974B2, “GH-RH analogs with potent agonistic effects” (The University of Miami, priority 2011, dated 2015)
“Also recorded” adds a separate entry of the source. Square brackets hold non-standard residues; d marks the D form. Peptide text beside a SMILES is read from it. * marks the point of attachment. Phe(F5) = N[C@@H](Cc1c(F)c(F)c(F)c(F)c1F)C(=O)O; Desaminotyrosyl = O=C(CCc1ccc(O)cc1)*; NMeY = CN[C@@H](Cc1ccc(O)cc1)C(=O)O; hArg = N=C(N)NCCCC[C@H](N)C(=O)O; Agmatine = N=C(N)NCCCCN*; Nle = CCCC[C@H](N)C(=O)O; Orn = NCCC[C@H](N)C(=O)O; Abu = CC[C@H](N)C(=O)O; GABA = NCCCC(=O)O

What was measured:
[1] = test system: superfused rat pituitary cells; assay: GH release in superfused rat pituitary cell system; format: cell-based; settings: 1 nM
Procedure: Growth hormone releasing is assayed by using a superfused rat pituitary cell system as described in S. Vigh and A. V. Schally, Peptides 5, Suppl: 241-347, 1984, which is incorporated by reference herein. The new synthetic peptide analogs of hGH-RH P20356 and JI-38 as control are administered for 3 minutes (1 mL perfusate) at 1 nM concentration as shown below. Fractions of 1 ml are collected and the GH content in each is determined by ELISA. […] Effect of hGH-RH analogs (1 nM) on the GH release in superfused rat pituitary cell system
Pituitary cells from 2 male rates were used for each channel of the superfusion system. The cells were exposed to 3-min pulses of the new GHRH agonists or to JI-38 as standard every 30 min. Outflowing samples of each channel (1 ml) were collected every 3 min, and GH levels were determined by ELISA.

GH release [2] = assay: In vivo GH release after subcutaneous administration; settings: rat, s.c.
Procedure: Blood samples are taken from the jugular vein; 5, 15 and 30 minutes or only 15 and 30 minutes after the injection. The blood samples are centrifuged, plasma is removed and the GH level is measured by ELISA. The results are summarized in terms of potency in Table 9.

GHRH receptor [3] = target: T1, GHRH receptor (Homo sapiens, UniProt Q02643); assay: GHRH receptor binding, [His1,125I-Tyr10,Nle27]hGHRH(1-32)NH2 ligand competition, human pituitary membrane homogenates (Table 6)
T1 construct: Normal human pituitaries were purchased from the National Hormone and Peptide Program; tissue National Hormone and Peptide Program (A. F. Parlow); host or cells: normal human pituitary, membrane fraction
T1 sequence (Q02643 23-423): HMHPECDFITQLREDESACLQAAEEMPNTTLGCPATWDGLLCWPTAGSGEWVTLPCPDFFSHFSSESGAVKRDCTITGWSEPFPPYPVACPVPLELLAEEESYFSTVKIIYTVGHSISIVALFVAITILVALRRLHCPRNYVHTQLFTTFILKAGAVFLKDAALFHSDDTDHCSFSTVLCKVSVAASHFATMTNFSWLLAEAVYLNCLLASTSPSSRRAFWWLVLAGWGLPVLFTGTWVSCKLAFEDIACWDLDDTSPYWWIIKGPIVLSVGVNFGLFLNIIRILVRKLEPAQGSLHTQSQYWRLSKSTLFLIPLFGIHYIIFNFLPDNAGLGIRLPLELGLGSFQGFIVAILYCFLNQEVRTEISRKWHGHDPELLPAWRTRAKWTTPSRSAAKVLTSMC
Procedure: (§1) Receptor binding assay Ligand competition assay with ^125I-labeled [His^1, Nle^27]hGH-RH(1-32)-NH2 was used to determine the binding affinities of the novel hGH-RH agonists to membrane receptors of rat anterior pituitary cells. The methods used have been described in detail (Halmos G, et al. Receptor 3: 87-97, 1993), here by incorporated by reference. Briefly, radioidonated [His^1, Nle^27]hGH-RH(1-32)-NH2 is prepared by the chloramines-T method. […] IC50 is the dose of the tested peptides causing 50% inhibition of specific binding to receptors.
(§2) Preparation of human pituitary membrane fraction and receptor binding of GHRH agonists were performed as previously described, by using a sensitive in vitro ligand competition assay based on binding of ^125I-labeled [His^1, Nle^27]hGHRH(1-32)NH2 to human pituitary membrane homogenates. Normal human pituitaries were purchased from the National Hormone and Peptide Program (A. F. Parlow, Los Angeles, County Harbor—UCLA Medical Center, Torrance, Calif.).

GH release [4] = assay: In vivo GH release after intravenous administration; settings: rat, i.v.
Procedure: The blood samples are centrifuged, plasma is removed and the GH level is measured by ELISA.

GHRH receptor [5] = target: T1, GHRH receptor; assay: GHRH receptor binding, 125I-labeled JV-1-42 ligand competition, human pituitary membrane homogenates (Table 7); settings: 125I-labeled JV-1-42, human pituitary membranes
Procedure: as §2, with “JV-1-42” for “[His^1, Nle^27]hGHRH(1-32)NH2”, “Harbor-UCLA” for “Harbor—UCLA”

GHRH receptor [6] = target: T1, GHRH receptor; assay: GHRH receptor binding, 125I-labeled JV-1-42 ligand competition, human pituitary membrane homogenates (Table 5)
Procedure: as §1
as §2, with “JV-1-42” for “[His^1, Nle^27]hGHRH(1-32)NH2”, “Harbor-UCLA” for “Harbor—UCLA”, “Calif.). Briefly, in competitive binding analysis, ^125I-labeled JV-1-42 (˜0.2 nM) was displaced by GHRH agonists at 10^−6 to 10^−12 M.” for “Calif.).”
The final binding affinities were expressed as IC50 values and were calculated by using the LIGAND PC computerized curve-fitting program of Munson and Rodbard as modified by McPherson.

[7] = given subcutaneously twice a day; cited from earlier work
[8] = target: dipeptidylpeptidase IV (DPP-IV) (Homo sapiens, UniProt P27487); settings: cited from earlier work
Chain of dipeptidylpeptidase IV (DPP-IV) (P27487 39-766 limits assumed, species assumed): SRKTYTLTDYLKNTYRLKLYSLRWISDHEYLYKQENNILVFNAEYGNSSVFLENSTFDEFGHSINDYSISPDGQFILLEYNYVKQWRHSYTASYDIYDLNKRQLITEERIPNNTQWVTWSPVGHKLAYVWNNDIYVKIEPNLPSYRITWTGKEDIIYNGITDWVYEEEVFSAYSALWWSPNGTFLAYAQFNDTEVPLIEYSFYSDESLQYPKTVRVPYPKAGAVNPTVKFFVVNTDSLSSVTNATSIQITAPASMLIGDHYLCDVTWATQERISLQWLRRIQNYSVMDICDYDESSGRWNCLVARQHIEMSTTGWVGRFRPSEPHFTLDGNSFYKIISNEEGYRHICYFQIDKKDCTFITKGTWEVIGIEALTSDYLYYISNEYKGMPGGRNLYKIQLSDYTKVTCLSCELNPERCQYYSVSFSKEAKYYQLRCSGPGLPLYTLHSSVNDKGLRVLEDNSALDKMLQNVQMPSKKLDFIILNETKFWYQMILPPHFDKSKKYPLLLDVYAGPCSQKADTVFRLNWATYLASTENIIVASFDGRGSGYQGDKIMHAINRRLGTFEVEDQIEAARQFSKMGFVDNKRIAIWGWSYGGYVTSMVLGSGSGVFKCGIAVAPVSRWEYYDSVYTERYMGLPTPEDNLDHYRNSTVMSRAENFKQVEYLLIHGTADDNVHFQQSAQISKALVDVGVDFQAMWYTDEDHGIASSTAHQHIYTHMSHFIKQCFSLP

Compound | GH response after subcutaneous administration (in words) (GH release [2]) | GH response after intravenous administration (in words) (GH release [4]) | IC50 (GHRH receptor [5]) | other results
CCCC[C@H](NC(=O)[C@@H](NC(=O)[C@H](CC(=O)O)NC(=O)[C@H](CCC(N)=O)NC(=O)[C@H](CC(C)C)NC(=O)[C@H](CC(C)C)NC(=O)[C@H](CCCN)NC(=O)[C@H](CCCNC(=N)N)NC(=O)[C@H](C)NC(=O)[C@H](CO)NC(=O)[C@H](CC(C)C)NC(=O)[C@H](CCC(N)=O)NC(=O)[C@H](CC)NC(=O)[C@H](CC(C)C)NC(=O)[C@@H](NC(=O)[C@H](CCCN)NC(=O)[C@H](CCCNC(=N)N)NC(=O)[C@H](Cc1ccc(O)cc1)NC(=O)[C@H](CO)NC(=O)[C@H](CCC(N)=O)NC(=O)[C@@H](NC(=O)[C@H](Cc1ccccc1)NC(=O)[C@@H](NC(=O)[C@H](C)NC(=O)[C@H](CC(=O)O)NC(=O)[C@H](C)NC(=O)[C@H](Cc1ccc(O)cc1)NC)[C@@H](C)CC)[C@@H](C)O)C(C)C)[C@@H](C)CC)C(=O)N[C@@H](CC(=O)O)C(=O)NCCCCNC(=N)N [Peptide P-20356, [N—Me-Tyr^1, Gln^8, Orn^12, Abu^15, Orn^21, Nle^27, Asp^28, Agm^29]hGH-RH(1-29)] (H-[NMeY]ADAIFTQSYR[Orn]VL[Abu]QLSAR[Orn]LLQDI[Nle]D-Agmatine) | unusually high responses; also recorded: especially greater growth hormone levels than hGH-RH or JI-38 | – | – | times more potent in vitro than JI-38 (GH release) [1]: about 3 times
CCCC[C@H](NC(=O)[C@@H](NC(=O)[C@H](CC(=O)O)NC(=O)[C@H](CCC(N)=O)NC(=O)[C@H](CC(C)C)NC(=O)[C@H](CC(C)C)NC(=O)[C@H](CCCN)NC(=O)[C@H](CCCNC(=N)N)NC(=O)[C@H](C)NC(=O)[C@H](CO)NC(=O)[C@H](CC(C)C)NC(=O)[C@H](CCC(N)=O)NC(=O)[C@H](CC)NC(=O)[C@H](CC(C)C)NC(=O)[C@@H](NC(=O)[C@H](CCCN)NC(=O)[C@H](CCCNC(=N)N)NC(=O)[C@H](Cc1ccc(O)cc1)NC(=O)[C@H](CO)NC(=O)[C@H](C)NC(=O)[C@@H](NC(=O)[C@H](Cc1ccccc1)NC(=O)[C@@H](NC(=O)[C@H](C)NC(=O)[C@H](CC(=O)O)NC(=O)[C@@H](C)NC(=O)CCc1ccc(O)cc1)[C@@H](C)CC)[C@@H](C)O)C(C)C)[C@@H](C)CC)C(=O)N[C@@H](CC(=O)O)C(=O)N[C@@H](CCCNC(=N)N)C(=O)N[C@@H](CCCCNC(=N)N)C(N)=O [Peptide P-23256, [Dat^1, D-Ala^2, Ala^8, Orn^12, Abu^15, Orn^21, Nle^27, Asp^28, Har^30]hGH-RH(1-30)NH2] (Desaminotyrosyl-[dA]DAIFTASYR[Orn]VL[Abu]QLSAR[Orn]LLQDI[Nle]DR[hArg]-NH2) | – | – | – | IC50 (GHRH receptor [3]; [His1,125I-Tyr10,Nle27]hGHRH(1-32)NH2, human pituitary membranes): 0.04 nM
CCCC[C@H](NC(=O)[C@@H](NC(=O)[C@H](CC(=O)O)NC(=O)[C@H](CCC(N)=O)NC(=O)[C@H](CC(C)C)NC(=O)[C@H](CC(C)C)NC(=O)[C@H](CCCN)NC(=O)[C@H](CCCNC(=N)N)NC(=O)[C@H](C)NC(=O)[C@H](CO)NC(=O)[C@H](CC(C)C)NC(=O)[C@H](CCC(N)=O)NC(=O)[C@H](CC)NC(=O)[C@H](CC(C)C)NC(=O)[C@@H](NC(=O)[C@H](CCCN)NC(=O)[C@H](CCCNC(=N)N)NC(=O)[C@H](Cc1ccc(O)cc1)NC(=O)[C@H](CO)NC(=O)[C@H](CC(N)=O)NC(=O)[C@@H](NC(=O)[C@H](Cc1c(F)c(F)c(F)c(F)c1F)NC(=O)[C@@H](NC(=O)[C@H](C)NC(=O)[C@H](CC(=O)O)NC(=O)[C@@H](C)NC(=O)CCc1ccc(O)cc1)[C@@H](C)CC)[C@@H](C)O)C(C)C)[C@@H](C)CC)C(=O)N[C@@H](CO)C(=O)N[C@@H](CCCNC(=N)N)C(=O)NCCCC(N)=O [Peptide P-25502, [Dat^1, D-Ala^2, Fpa5^6, Orn^12, Abu^15, Orn^21, Nle^27, Gab^30]hGH-RH(1-30)NH2] (Desaminotyrosyl-[dA]DAI[Phe(F5)]TNSYR[Orn]VL[Abu]QLSAR[Orn]LLQDI[Nle]SR[GABA]-NH2) | unusually high responses; also recorded: especially greater growth hormone levels than hGH-RH or JI-38 | most potent | 0.33 nM | IC50 (GHRH receptor [6]; 125I-labeled JV-1-42, human pituitary membranes): 0.07 nM
CCCC[C@H](NC(=O)[C@@H](NC(=O)[C@H](CC(=O)O)NC(=O)[C@H](CCC(N)=O)NC(=O)[C@H](CC(C)C)NC(=O)[C@H](CC(C)C)NC(=O)[C@H](CCCN)NC(=O)[C@H](CCCNC(=N)N)NC(=O)[C@H](C)NC(=O)[C@H](CO)NC(=O)[C@H](CC(C)C)NC(=O)[C@H](CCC(N)=O)NC(=O)[C@H](CC)NC(=O)[C@H](CC(C)C)NC(=O)[C@@H](NC(=O)[C@H](CCCN)NC(=O)[C@H](CCCNC(=N)N)NC(=O)[C@H](Cc1ccc(O)cc1)NC(=O)[C@H](CO)NC(=O)[C@H](CCC(N)=O)NC(=O)[C@@H](NC(=O)[C@H](Cc1ccccc1)NC(=O)[C@@H](NC(=O)[C@H](C)NC(=O)[C@H](CC(=O)O)NC(=O)[C@@H](C)NC(=O)[C@H](Cc1ccc(O)cc1)NC)[C@@H](C)CC)[C@@H](C)O)C(C)C)[C@@H](C)CC)C(=O)N[C@@H](CC(=O)O)C(=O)N[C@@H](CCCNC(=N)N)C(=O)NC [Peptide P-27403, [N—Me-Tyr^1, D-Ala^2, Gln^8, Orn^12, Abu^15, Orn^21, Nle^27, Asp^28]hGH-RH(1-29)NH—CH3] (H-[NMeY][dA]DAIFTQSYR[Orn]VL[Abu]QLSAR[Orn]LLQDI[Nle]DR-NHMe) | unusually high responses; also recorded: especially greater growth hormone levels than hGH-RH or JI-38 | most potent | 0.16 nM | –
hGH-RH(1-29)NH2 [GHRH (1-29), reference compound] | – | – | – | Relative affinity (Binding potency) vs GHRH (GHRH receptor [6]; relative to GHRH(1-29) = 1): 1; Relative affinity (Binding potency) vs GHRH (GHRH receptor [3]; relative to GHRH(1-29) = 1): 1; share of GH-deficient children in whom linear growth was promoted [7]: approximately 50%
hGH-RH: native human GH-RH, 44 amino acids with an amidated carboxyl terminus | – | – | – | degradation in plasma via DPP-IV cleavage between residues 2 and 3 [8]: rapidly degraded
